These results are taken from patent publication US5733913A, “6-Aryl pyrido[2,3-d] pyrimidines and naphthyridines for inhibiting protein tyrosine kinase mediated cellular proliferation” (priority 1995, dated 1998).

Like-named read-outs stand apart in the source and are kept apart here.

What all share (type): biochemical
For assay [1], the target named is T1, mouse PDGF-β receptor tyrosine kinase (Mus musculus, UniProt P05622).
T1 construct: a fragment of DNA that codes for the intracellular tyrosine kinase domain; made in house; host or cells: Sf9 insect cells (baculovirus), cell lysate
The assay is described as follows: PDGF receptor tyrosine kinase assay. The following applies: for IC50: read-out: Inhibition of Protein Tyrosine Kinases, PDGF, IC50; for inhibition at 50 µM: read-out: Inhibition of Protein Tyrosine Kinases, PDGF, % Inhibition. An excerpt: (§1) PDGF and FGF Receptor Tyrosine Kinase Assays
(§2) Full length cDNAs for the mouse PDGF-β and human FGF-1 (flg) receptor tyrosine kinases were obtained from J. Escobedo and prepared as described in J. Biol. Chem., 262:1482-1487 (1991), and PCR primers were designed to amplify a fragment of DNA that codes for the intracellular tyrosine kinase domain. The fragment was melded into a baculovirus vector, cotransfected with AcMNPV DNA, and the recombinant virus isolated. SF9 insect cells were infected with the virus to overexpress the protein, and the cell lysate was used for the assay. […] Briefly, to each well was added 82.5 μL of incubation buffer containing 25 mM Hepes (pH 7.0), 150 mM NaCl, 0.1% Triton X-100, 0.2 mM PMSF, 0.2 mM Na3 VO4, 10 mM MnCl2, and 750 μg/mL of Poly (4:1) glutamate-tyrosine followed by 2.5 μL of inhibitor and 5 μL of enzyme lysate (7.5 μg/μL FGF-TK or 6.0 μg/μL PDGF-TK) to initiate the reaction. Following a 10 minute incubation at 25° C., 10 μL of γ^32 P-ATP (0.4 μCi plus 50 μM ATP) was added to each well and samples were incubated for an additional 10 minutes at 25° C. The reaction was terminated by the addition of 100 μL of 30% trichloroacetic acid (TCA) containing 20 mM sodium pyrophosphate and precipitation of material onto glass fiber filter mats (Wallac). […] Nonspecific activity was defined as radioactivity retained on the filters following incubation of samples with buffer alone (no enzyme). Specific enzymatic activity was defined as total activity (enzyme plus buffer) minus nonspecific activity.

Assay [2] has as its target T2, human FGF-1 (flg) receptor tyrosine kinase (Homo sapiens, UniProt P11362).
T2 construct: a fragment of DNA that codes for the intracellular tyrosine kinase domain; made in house; host or cells: Sf9 insect cells (baculovirus), cell lysate
The assay is described as follows: FGF receptor tyrosine kinase assay. The following applies: for IC50: read-out: Inhibition of Protein Tyrosine Kinases, FGF, IC50; for inhibition at 50 µM: read-out: Inhibition of Protein Tyrosine Kinases, FGF, % Inhibition.
Excerpt: as §1, §2

The target in another assay is T3, C-src kinase (Homo sapiens, UniProt P12931).
T3 construct: made in house; host or cells: baculovirus-infected insect cells
The assay is described as follows: C-src kinase assay. The following applies: for inhibition at 50 µM: read-out: Inhibition of Protein Tyrosine Kinases, C-src, % Inhibition. The protocol: V-src and C-src Kinase Assays
V-src or C-src kinase is purified from baculovirus infected insect cell lysates using an antipeptide monoclonal antibody directed against the N-terminal 2-17 amino acids. The antibody, covalently linked to 0.65-μm latex beads, is added to a suspension of insect cell lysis buffer comprised of 150 mM NaCl, 50 mM Tris pH 7.5, 1 mM DTT, 1% NP-40, 2 mM EGTA, 1 mM sodium vanadate, 1 mM PMSF, 1 μg/mL each of leupeptin, pepstatin, and aprotinin. […] At the end of the lysate incubation, the beads are rinsed 3 times in lysis buffer, resuspended in lysis buffer containing 10% glycerol, and frozen. These latex beads are thawed, rinsed three times in assay buffer which is comprised of 40 mM tris pH 7.5, 5 mM MgCl2, and suspended in the same buffer. In a Millipore 96-well plate with a 0.65 μm polyvinylidine membrane bottom are added the reaction components: 10-μL v-src or c-src beads, 10 μL of 2.5 mg/mL poly GluTyr substrate, 5 μM ATP containing 0.2 μCi labeled ^32 P-ATP, 5μL DMSO containing inhibitors or as a solvent control, and buffer to make the final volume 125 μL. The reaction is started at room temperature by addition of the ATP and quenched 10 minutes later by the addition of 125 μL of 30% TCA, 0.1M sodium pyrophosphate for 5 minutes on ice. The plate is then filtered and the wells washed with two 250-μL aliquots of 15% TCA, 0.1M pyrophosphate. The filters are punched, counted in a liquid scintillation counter, and the data examined for inhibitory activity in comparison to a known inhibitor such as erbstatin. The method is described more fully in J. Med. Chem., 37:598-609 (1994).

[3] abbreviates: read-out: Inhibition of Protein Tyrosine Kinases, C-src, IC50.

T1 sequence (P05622 599-961 limits assumed): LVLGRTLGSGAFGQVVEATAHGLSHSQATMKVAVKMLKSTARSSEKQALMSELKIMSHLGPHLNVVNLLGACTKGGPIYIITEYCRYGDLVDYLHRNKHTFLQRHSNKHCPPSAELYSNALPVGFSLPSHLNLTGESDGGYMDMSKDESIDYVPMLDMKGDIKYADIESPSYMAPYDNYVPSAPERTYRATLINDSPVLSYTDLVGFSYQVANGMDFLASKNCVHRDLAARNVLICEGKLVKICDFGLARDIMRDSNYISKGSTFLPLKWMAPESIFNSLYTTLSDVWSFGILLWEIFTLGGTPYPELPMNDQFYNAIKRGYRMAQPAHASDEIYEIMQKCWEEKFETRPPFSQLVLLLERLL
T2 sequence (P11362 478-767 limits assumed): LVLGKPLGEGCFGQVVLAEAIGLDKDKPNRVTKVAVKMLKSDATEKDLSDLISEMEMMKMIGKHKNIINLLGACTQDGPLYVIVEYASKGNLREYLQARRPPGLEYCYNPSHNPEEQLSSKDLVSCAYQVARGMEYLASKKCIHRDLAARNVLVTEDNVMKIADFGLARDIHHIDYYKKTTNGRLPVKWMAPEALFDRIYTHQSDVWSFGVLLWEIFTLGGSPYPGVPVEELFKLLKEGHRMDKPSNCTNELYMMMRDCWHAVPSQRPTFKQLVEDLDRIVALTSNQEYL
T3 sequence (P12931 whole entry): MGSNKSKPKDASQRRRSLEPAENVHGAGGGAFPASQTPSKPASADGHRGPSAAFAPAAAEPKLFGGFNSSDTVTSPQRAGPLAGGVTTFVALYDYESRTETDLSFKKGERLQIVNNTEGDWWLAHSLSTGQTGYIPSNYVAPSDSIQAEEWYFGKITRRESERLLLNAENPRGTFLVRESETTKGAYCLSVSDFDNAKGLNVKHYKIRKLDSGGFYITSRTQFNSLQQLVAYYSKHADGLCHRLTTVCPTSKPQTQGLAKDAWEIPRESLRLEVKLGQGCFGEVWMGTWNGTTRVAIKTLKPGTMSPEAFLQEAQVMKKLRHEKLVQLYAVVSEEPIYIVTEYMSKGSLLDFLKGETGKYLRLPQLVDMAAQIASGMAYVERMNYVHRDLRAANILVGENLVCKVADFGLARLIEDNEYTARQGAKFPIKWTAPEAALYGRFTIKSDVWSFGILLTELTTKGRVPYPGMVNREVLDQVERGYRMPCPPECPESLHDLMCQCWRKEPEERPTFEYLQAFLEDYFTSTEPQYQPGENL

For the molecule `CCCNC(=O)Nc1nc2nc(N)ncc2cc1-c1c(Cl)cccc1Cl` [Example 26, 1-[2-Amino-6-(2,6-dichlorophenyl)-pyrido[2,3-d]pyrimidin-7-yl]-3-propyl-ure], the IC50 (commonly the concentration at which inhibition is half-maximal) stood at 1080 nM in assay [1], 116 nM in assay [2] and 39.5 nM on C-src kinase (setting [3]).
`CN(C)CC(C)(C)CNc1ncc2cc(-c3c(Cl)cccc3Cl)c(NC(=O)NC(C)(C)C)nc2n1` [Example 30, 1-tert-Butyl-3-[6-(2,6-dichlorophenyl)-2-[3-dimethylamino-2,2-dimethyl-propylamino)-pyrido[2,3-d]pyrimidin-7-yl]-urea]: the IC50 in assay [1] was 1780 nM; in assay [2] it was 264 nM. Also, at C-src kinase, the inhibition (in general, the change of the read-out against control, counted positive when it falls) at 50 µM was found to be 46.8%.
Take `CC1CCCCN1CCCNc1ncc2cc(-c3c(Cl)cccc3Cl)c(NC(=O)NC(C)(C)C)nc2n1` (stereo not drawn) [Example 32, 1-tert-Butyl-3-{6-(2,6-dichlorophenyl)-2-[3-(2-methyl-piperidin-1-yl)-propylamino]-pyrido[2,3-d]pyrimidin-7-yl}-urea]: the IC50 amounted to 415 nM in assay [1] and 5000 nM at C-src kinase (setting [3]).
For `CN1CCN(CCCCNc2ncc3cc(-c4c(Cl)cccc4Cl)c(NC(=O)NC(C)(C)C)nc3n2)CC1` [Example 34, 1-tert-Butyl-3-{6-(2,6-dichlorophenyl)-2-[4-(4-methyl-piperazin-1-yl)-butylamino]-pyrido[2,3-d]pyrimidin-7-yl}-urea], in that order: 349 nM and 11 nM.
Consider `CN1CCN(CCCNc2ncc3cc(-c4c(Cl)cccc4Cl)c(NC4=NCCCO4)nc3n2)CC1` [Example 35, 6-(2,6-Dichlorophenyl)-N^7-(5,6-dihydro-4H-[1,3]oxazin-2-yl)-N^2-[3-(4-methyl-piperazin-1-yl)-propyl]-pyrido[2,3-d]pyrimidine-2,7-diamine], for which, in assay [1], the concentration for half-maximal inhibition (IC50) came to 2080 nM. The inhibition at 50 µM in assay [2] was determined as 97.9%.
For the molecule `CN1CCN(CCCNc2ncc3cc(-c4c(Cl)cccc4Cl)c(NC(=O)NC4CCCCC4)nc3n2)CC1` [Example 37, 1-Cyclohexyl-3-{6-(2,6-dichlorophenyl)-2-[3-(4-methyl-piperazin-1-yl)-propylamino]-pyrido[2,3-d]pyrimidin-7-yl}-urea], on C-src kinase, the inhibition at 50 µM came out at 106%.
Consider `CN1CCN(CCCNc2ncc3cc(-c4c(Cl)cccc4Cl)c(NC(=O)NCc4ccccc4)nc3n2)CC1` [Example 39, 1-Benzyl-3-{6-(2,6-dichlorophenyl)-2-[3-(4-methyl-piperazin-1-yl)-propylamino]-pyrido[2,3-d]pyrimidin-7-yl}-urea], for which the concentration for half-maximal inhibition (IC50) at C-src kinase (setting [3]) is 21 nM.
On to `C=CCNC(=O)Nc1nc2nc(NCCCN3CCN(C)CC3)ncc2cc1-c1c(Cl)cccc1Cl` [Example 40, 1-Allyl-3-{6-(2,6-dichlorophenyl)-2-[3-(4-methyl-piperazin-1-yl)-propylamino]-pyrido[2,3-d]pyrimidin-7-yl}-urea], for which the half-inhibitory concentration (IC50) is 697 nM in assay [1] and 57.4 nM in assay [2].
As to `COc1ccc(NC(=O)Nc2nc3nc(NCCCN4CCN(C)CC4)ncc3cc2-c2c(Cl)cccc2Cl)cc1` [Example 41, 1-{6-(2,6-Dichlorophenyl)-2-[3-(4-methyl-piperazin-1-yl)-propylamino]-pyrido[2,3-d]pyrimidin-7-yl}-3-(4-methoxy-phenyl)-urea], the IC50 on C-src kinase (setting [3]) was determined as 86 nM.
For `COc1cccc(NC(=O)Nc2nc3nc(NCCCN4CCN(C)CC4)ncc3cc2-c2c(Cl)cccc2Cl)c1` [Example 42, 1-{6-(2,6-Dichlorophenyl)-2-[3-(4-methyl-piperazin-1-yl)-propylamino]-pyrido[2,3-d]pyrimidin-7-yl}-3-(3-methoxy-phenyl)-urea], the IC50 is 624 nM in assay [1] and 32 nM on C-src kinase (setting [3]).
For the molecule `CN1CCN(CCCNc2ncc3cc(-c4c(Cl)cccc4Cl)c(NC(=O)Nc4cccc5ccccc45)nc3n2)CC1` [Example 50, 1-{6-(2,6-Dichlorophenyl)-2-[3-(4-methyl-piperazin-1-yl)-propylamino]-pyrido[2,3-d]pyrimidin-7-yl}-3-naphthalen-1-yl-urea], the IC50 in assay [1] is 2600 nM; in assay [2] it was 305 nM.
Consider `Nc1ncc2cc(-c3c(Br)cccc3Br)c(N)nc2n1` [Example 60, 6-(2,6-Dibromo-phenyl)-pyrido[2,3-d]pyrimidine-2,7-diamine], for which the half-inhibitory concentration (IC50) stood at 13000 nM in assay [2] and 1570 nM on C-src kinase.
Regarding `CN(C)C=Nc1ncc2cc(-c3c(Cl)cccc3Cl)c(N=CN(C)C)nc2n1` [Example 80, N'-[6-(2,6-Dichlorophenyl)-7-[(dimethylamino)methylene-amino]-pyrido[2,3-d]pyrimidin-2-yl]-N,N-dimethylformamidine], the inhibition at 50 µM in assay [1] turned out to be 22.9%. In assay [2], the IC50 was 10200 nM.
For `Cc1cc(C)cc(-c2cc3cnc(N)nc3nc2N)c1` [Example 94, 6-(3,5-Dimethyl-phenyl)-pyrido[2,3-d]pyrimidine-2,7-diamine], the inhibition at 50 µM in assay [1] turned out to be 11.5%. In assay [2], the IC50 came to 17600 nM.
On to `Cc1cc(C)c(-c2cc3cnc(N)nc3nc2N)c(C)c1` [Example 96, 6-(2,4,6-Trimethyl-phenyl)-pyrido[2,3-d]pyrimidine-2,7-diamine], for which the IC50 in assay [1] worked out at 27400 nM; in assay [2], 3840 nM.
Regarding `Cc1cc(C)c(C)c(-c2cc3cnc(N)nc3nc2NC(=O)NC(C)(C)C)c1C` [Example 99, 1-[2-Amino-6-(2,3,5,6-tetramethyl-phenyl)-pyrido[2,3-d]pyrimidin-7-yl]-3-tert-butyl-urea], the inhibition at 50 µM at C-src kinase worked out at 17.1%.
Regarding `Nc1ncc2cc(-c3c(Cl)cccc3Br)c(N)nc2n1` [Example 104, 6-(2-Bromo-6-chloro-phenyl)-pyrido[2,3-d]pyrimidine-2,7-diamine], the values for the IC50 in assay [1] and in assay [2] were 36700 nM and 5320 nM, respectively.
As to `Nc1ncc2cc(-c3ccncc3)c(N)nc2n1` [Example 109, 6-Pyridin-4-yl-pyrido[2,3-d]pyrimidine-2,7-diamine], the inhibition at 50 µM was 23.6% in assay [1] and 10.3% in assay [2].
As for `CN1CCN(CCCNc2ncc3cc(-c4c(Cl)cccc4Cl)c(NC(=S)NC(C)(C)C)nc3n2)CC1` [Example 118, 1-tert-Butyl-3-{6-(2,6-dichlorophenyl)-2-[3-(4-methyl-piperazin-1-yl)-propylamino]-pyrido[2,3-d]pyrimidin-7-yl}-thiourea], the values for the concentration for half-maximal inhibition (IC50) in assay [1] and in assay [2] were 1920 nM and 126 nM, respectively.
The matching figures for `CCN(CC)C(=O)Nc1nc2nc(NCCCN3CCN(C)CC3)ncc2cc1-c1c(Cl)cccc1Cl` [Example 119, 3-{6-(2,6-Dichlorophenyl)-2-[3-(4-methyl-piperazin-1-yl)-propylamino]-pyrido[2,3-d]pyrimidin-7-yl}-1,1-diethyl-urea]: 62400 nM and 7710 nM.
`Cc1cc(C)c(C)c(-c2cc3cnc(NCCCN4CCN(C)CC4)nc3nc2NC(=O)NC(C)(C)C)c1C` [Example 121, 1-tert-Butyl-3-{2-[3-(4-methyl-piperazin-1-yl)-propylamino]-6-(2,3,5,6-tetramethyl-phenyl)-pyrido-[2,3-d]pyrimidin-7-yl}-urea]: the inhibition at 50 µM in assay [1] stood at 21.8%. For the same molecule, the IC50 in assay [2] turned out to be 142 nM.
As for `CCN(CC)CCCCNc1ncc2cc(-c3c(Cl)cccc3Cl)c(NC(=S)NCCCN3CCOCC3)nc2n1` [Example 122, 1-[6-(2,6-Dichlorophenyl)-2-(4-diethylamino-butylamino)-pyrido[2,3-d]pyrimidin-7-yl]-3-(3-morpholin-4-yl-propyl)-thiourea], the IC50 in assay [1] came to 1460 nM; in assay [2] it was 171 nM.
